Consider 1 substance from patent US20170027854A1, “Methods And Compositions For Improving The Appearance Of Skin” (ELC Management LLC, priority 2015, published 2017).

The test has as its system SIRT6. As to the kind of experiment: SIRT6 expression in normal human epidermal keratinocytes by immunohistochemistry. The note with it: 1% and 3% of a 50 ppm peptide solution, FIG. 2. In kind it is cell-based. As to the method: SIRT6 is a member of the conserved family of sirtuin proteins which are associated with metabolism and longevity. SIRT6 is a histone 3, lysine 9 (H3K9) deacetylase and is primarily involved in DNA repair and telomere stability. The peptide of (SEQ ID No. 5) Gly-Ala-Gly-Val-Ser-Ala-Glu-NH2 was tested for Sirt6 stimulating activity as follows.
Normal Human Epidermal Keratinocytes p3
• 1. Cells were plated into 4 well chamber slides @ 10,000 cells/chamber and incubated at 37° C., 5% CO2 & 95% humidity for 24 hours. • 2. The peptide of SEQ ID No. 5 was prepared as follows: • 2.1. Dissolved 5 mg peptide in 5 ml medium to make a 1000 ppm stock solution. • 2.2. Diluted the stock solution to 50 ppm by combining 400 μl 1000 ppm stock solution with 7.6 ml medium • 2.3. Prepared a 3% of the 50 ppm solution by combining 1.5 ml 50 ppm stock with 48.5 ml medium • 2.4. Prepared a 1% of the 50 ppm solution by combining 0.5 ml 50 ppm stock with […] medium • 3. Placed treatments (500 μl per chamber) on cells for 48 h, refreshing treatments after 24 h • 4. Aspirated media and replaced with the appropriate treatments. Incubated for 1 & 6 hours. • 5. Performed immunohistochemistry on the cells
• 6. Prepared Wash Buffer (0.2% Triton X-100):
6.1. Add 1 mL of Triton X-100 to 499 ml of 1×PBS • 7. Prepared Block Solution (1%/10 mg/ml BSA)
7.1. Added 5 g of BSA into a final volume of 500 ml of 1×PBS • 8. […]

Ends that are not written are not given here.

Turning to “Gly-Ala-Gly-Val-Ser-Ala-Glu-NH2 (GAGVSAE-NH2) [SEQ ID No. 5]”, the SIRT6 expression result was “dose dependent increase in SIRT6 expression”.
